Experimental findings from patent publication US20260116920A1, “HUMAN TRANSFERRIN RECEPTOR BINDING PEPTIDE” (PEPTIDREAM INC., priority 2021, published 2026) are described below.

Starred links: 1 amine or outer side, 2 acyl side, 3 side chain; linkers in the order of their positions; H or OH if unused. Positions of bridges follow the written chain, without caps; N, C: chain ends. Non-standard residues stand in square brackets, D forms with d. Residues, ends and D or L forms follow the SMILES beside them. *: point of attachment. E(PEG8Me) = (S)-30-amino-27-oxo-2,5,8,11,14,17,20,23-octaoxa-26-azahentriacontane-31-oic acid, COCCOCCOCCOCCOCCOCCOCCOCCNC(=O)CC[C@H](N[*:1])C(=O)[*:2]; F4aao = (S)-2-amino-3-(4-(carboxymethoxy)phenyl)propanoic acid, O=C([C@H](Cc1ccc(OCC(=O)[*:3])cc1)N[*:1])[*:2]; Trp(1-CH2CO) = O=C([C@H](Cc1cn(CC(=O)[*:3])c2ccccc12)N[*:1])[*:2]; Trp(1-CH2COOH) = N[C@@H](Cc1cn(CC(=O)O)c2ccccc12)C(=O)O; Nle(6-morpholino) = N[C@@H](CCCCN1CCOCC1)C(=O)O; Phe(3-COOH) = N[C@@H](Cc1cccc(C(=O)O)c1)C(=O)O; NH(CH2CH2O)8Me = COCCOCCOCCOCCOCCOCCOCCOCCN*; NMePhe(3-Cl) = CN[C@@H](Cc1cccc(Cl)c1)C(=O)O; PEG8 = NCCOCCOCCOCCOCCOCCOCCOCCOCCC(=O)O; Lys(N3) = [N-]=[N+]=NCCCC[C@H](N)C(=O)O; NMeY = CN[C@@H](Cc1ccc(O)cc1)C(=O)O; NH(CH2CH2O)4Me = COCCOCCOCCOCCN*; 3Pal = N[C@@H](Cc1cccnc1)C(=O)O; 4Pal = N[C@@H](Cc1ccncc1)C(=O)O; PEG4 = NCCOCCOCCOCCOCCC(=O)O; Carboxymethyl = O=C(O)C*; NHCH2CH2OH = OCCN*

The first assay deals with T1, human transferrin receptor (hTfR) (Homo sapiens, UniProt P02786).
T1 construct: made in house
T1 sequence (P02786 89-760 limits assumed): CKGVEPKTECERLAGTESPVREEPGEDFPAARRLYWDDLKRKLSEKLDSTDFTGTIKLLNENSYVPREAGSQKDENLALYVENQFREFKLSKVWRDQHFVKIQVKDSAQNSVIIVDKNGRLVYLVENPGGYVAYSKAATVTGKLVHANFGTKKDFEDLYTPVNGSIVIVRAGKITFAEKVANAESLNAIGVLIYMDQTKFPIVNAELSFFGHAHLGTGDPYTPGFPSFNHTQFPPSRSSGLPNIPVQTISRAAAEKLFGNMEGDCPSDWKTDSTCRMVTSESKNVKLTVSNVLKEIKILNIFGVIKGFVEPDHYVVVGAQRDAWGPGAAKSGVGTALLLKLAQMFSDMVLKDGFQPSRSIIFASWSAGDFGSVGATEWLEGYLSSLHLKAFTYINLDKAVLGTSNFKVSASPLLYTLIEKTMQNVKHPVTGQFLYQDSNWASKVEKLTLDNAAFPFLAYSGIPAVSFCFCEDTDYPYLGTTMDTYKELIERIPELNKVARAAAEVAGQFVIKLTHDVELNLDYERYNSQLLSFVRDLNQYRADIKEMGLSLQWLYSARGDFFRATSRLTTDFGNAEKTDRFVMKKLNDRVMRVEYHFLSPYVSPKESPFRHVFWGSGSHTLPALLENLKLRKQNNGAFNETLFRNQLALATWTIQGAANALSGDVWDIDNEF
In words: Evaluation of molecular interaction between transferrin receptor (hTfR) and peptide using surface plasmon resonance (SPR). It counts as binding. The conditions noted are these: KD class for binding to hTfR by SPR; peptide with the linker shown in the same line; 'low signal indicates no activity'. In outline:
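Binding kinetics of peptides to immobilized recombinant human TfR dimer were measured by SPR at 5–100 nM in a single-cycle format, with KD obtained from curve fitting.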
On to “894_3183 ({CH2CO}-AV[NMePhe(3-Cl)]V[Trp(1-CH2CO)]NY[F4aao]II[E(PEG8Me)][E(PEG8Me)]F[NMeY]CG[PEG8][Lys(N3)]-NH2; thioether N-15; SMILES CC[C@H](C)[C@@H]1NC(=O)[C@H](Cc2ccc(OCC(=O)O)cc2)NC(=O)[C@H](Cc2ccc(O)cc2)NC(=O)[C@H](CC(N)=O)NC(=O)[C@H](Cc2cn(CC(=O)O)c3ccccc23)NC(=O)[C@H](C(C)C)NC(=O)[C@H](Cc2cccc(Cl)c2)N(C)C(=O)[C@H](C(C)C)NC(=O)[C@H](C)NC(=O)CSC[C@@H](C(=O)NCC(=O)NCCOCCOCCOCCOCCOCCOCCOCCOCCC(=O)N[C@@H](CCCCN=[N+]=[N-])C(N)=O)NC(=O)[C@H](Cc2ccc(O)cc2)N(C)C(=O)[C@H](Cc2ccccc2)NC(=O)[C@H](CCC(=O)NCCOCCOCCOCCOCCOCCOCCOCCOC)NC(=O)[C@H](CCC(=O)NCCOCCOCCOCCOCCOCCOCCOCCOC)NC(=O)[C@H]([C@@H](C)CC)NC1=O)”, for which the SPR result is on record as “Low signal”.

Staying with this assay, now noted: KD class for binding to hTfR by SPR; peptide with the linker shown in the same line; 'low signal indicates no activity'; read-out: SPR.
For the compound `CC[C@H](C)[C@@H]1NC(=O)[C@H](Cc2ccc(OC)cc2)NC(=O)[C@H](Cc2ccc(O)cc2)NC(=O)[C@H](CC(N)=O)NC(=O)[C@H](Cc2c[nH]c3ccccc23)NC(=O)[C@H](C(C)C)NC(=O)[C@H](Cc2cccc(Cl)c2)N(C)C(=O)[C@H](C(C)C)NC(=O)[C@H](C)NC(=O)CSC[C@@H](C(=O)NCC(=O)N[C@@H](CCCCN=[N+]=[N-])C(N)=O)NC(=O)[C@H](Cc2ccc(O)cc2)N(C)C(=O)[C@H](Cc2ccc(O)cc2)NC(=O)[C@H](CCCNC(=N)N)NC(=O)[C@H](CCCNC(=N)N)NC(=O)[C@H]([C@@H](C)CC)NC1=O` [894_3164], the Kd was in the range of 1 to 100 nM.
On the same count and under the same terms, under `CC[C@H](C)[C@@H]1NC(=O)[C@H](Cc2ccc(OCC(=O)O)cc2)NC(=O)[C@H](Cc2ccc(O)cc2)NC(=O)[C@H](CC(N)=O)NC(=O)[C@H](Cc2c[nH]c3ccccc23)NC(=O)[C@H](C(C)C)NC(=O)[C@H](Cc2cccc(Cl)c2)N(C)C(=O)[C@H](C(C)C)NC(=O)[C@H](C)NC(=O)CSC[C@@H](C(=O)NCCOCCOCCOCCOCCC(N)=O)NC(=O)[C@H](Cc2ccc(O)cc2)N(C)C(=O)[C@H](Cc2cccc(C(=O)O)c2)NC(=O)[C@H](CCCNC(=N)N)NC(=O)[C@H](CCCNC(=N)N)NC(=O)[C@H]([C@@H](C)CC)NC1=O` [894_0363] stands 1 to 100 nM; under `CC[C@H](C)[C@@H]1NC(=O)[C@H](Cc2ccc(OCC(=O)O)cc2)NC(=O)[C@H](Cc2ccc(O)cc2)NC(=O)[C@H](CC(N)=O)NC(=O)[C@H](Cc2cn(CC(=O)O)c3ccccc23)NC(=O)[C@H](C(C)C)NC(=O)[C@H](Cc2cccc(Cl)c2)N(C)C(=O)[C@H](C(C)C)NC(=O)[C@H](C)NC(=O)CSC[C@@H](C(=O)NCCOCCOCCOCCOCCC(N)=O)NC(=O)[C@H](Cc2ccc(O)cc2)N(C)C(=O)[C@H](Cc2ccccc2)NC(=O)[C@H](CCC(=O)NCCO)NC(=O)[C@H](CCC(=O)NCCO)NC(=O)[C@H]([C@@H](C)CC)NC1=O` [894_0382] ({CH2CO}-AV[NMePhe(3-Cl)]V[Trp(1-CH2COOH)]NYY(Carboxymethyl)IIE(NHCH2CH2OH)E(NHCH2CH2OH)F[NMeY]C[PEG4]-NH2; thioether N-15), below 1 nM.

The same assay, now with this note: peptide with linker, surface plasmon resonance; read-out: SPR (KD class for binding to hTfR).
Regarding `CC[C@H](C)[C@@H]1NC(=O)[C@H](Cc2ccc(OCC(=O)O)cc2)NC(=O)[C@H](Cc2ccc(O)cc2)NC(=O)[C@H](CC(N)=O)NC(=O)[C@H](Cc2cn(CC(=O)O)c3ccccc23)NC(=O)[C@H](C(C)C)NC(=O)[C@H](Cc2cccc(Cl)c2)N(C)C(=O)[C@H](C(C)C)NC(=O)[C@H](C)NC(=O)CSC[C@@H](C(=O)NCCOCCOCCOCCOCCC(N)=O)NC(=O)[C@H](Cc2ccc(O)cc2)N(C)C(=O)[C@H](Cc2ccncc2)NC(=O)[C@H](CCCNC(=N)N)NC(=O)[C@H](CCC(=O)NCCOCCOCCOCCOCCOCCOCCOCCOC)NC(=O)[C@H]([C@@H](C)CC)NC1=O` [compound 231], the Kd is 1 to 100 nM.

Still in this assay, the particulars now being: surface plasmon resonance, binding to hTfR; KD class symbol; read-out: SPR (KD value).
As for `CC[C@H](C)[C@@H]1NC(=O)[C@H](Cc2ccc(OCC(=O)O)cc2)NC(=O)[C@H](Cc2ccc(O)cc2)NC(=O)[C@H](CC(N)=O)NC(=O)[C@H](Cc2c[nH]c3ccccc23)NC(=O)[C@H](C(C)C)NC(=O)[C@H](Cc2cccc(Cl)c2)N(C)C(=O)[C@H](C(C)C)NC(=O)[C@H](C)NC(=O)CSC[C@@H](C(=O)NCCOCCOCCOCCOCCC(N)=O)NC(=O)[C@H](Cc2ccc(O)cc2)N(C)C(=O)[C@H](Cc2cccc(C(=O)O)c2)NC(=O)[C@H](CCC(=O)NCCOCCOCCOCCOCCOCCOCCOCCOC)NC(=O)[C@H](CCCNC(=N)N)NC(=O)[C@H]([C@@H](C)CC)NC1=O` [compound 95] ({CH2CO}-AV[NMePhe(3-Cl)]VWNYY(Carboxymethyl)IIRE(NH(CH2CH2O)8Me)[Phe(3-COOH)][NMeY]C[PEG4]-NH2; thioether N-15), the Kd lay in the range of 1 to 100 nM.
On the same count and under the same terms, the value for `CC[C@H](C)[C@@H]1NC(=O)[C@H](Cc2ccc(OC)cc2)NC(=O)[C@H](Cc2ccc(O)cc2)NC(=O)[C@H](CC(N)=O)NC(=O)[C@H](Cc2cn(CC(=O)O)c3ccccc23)NC(=O)[C@H](C(C)C)NC(=O)[C@H](Cc2cccc(Cl)c2)N(C)C(=O)[C@H](C(C)C)NC(=O)[C@H](C)NC(=O)CSC[C@@H](C(=O)NCCOCCOCCOCCOCCC(N)=O)NC(=O)[C@H](Cc2ccc(O)cc2)N(C)C(=O)[C@H](Cc2ccccc2)NC(=O)[C@H](CCCNC(=N)N)NC(=O)[C@H](CCCNC(=N)N)NC(=O)[C@H]([C@@H](C)CC)NC1=O` [compound 108] was below 1 nM.
The same measure, in the same setting: the value for `CC[C@H](C)[C@@H]1NC(=O)[C@H](Cc2ccc(OCC(=O)O)cc2)NC(=O)[C@H](Cc2ccc(O)cc2)NC(=O)[C@H](CC(N)=O)NC(=O)[C@H](Cc2cn(CC(=O)O)c3ccccc23)NC(=O)[C@H](C(C)C)NC(=O)[C@H](Cc2cccc(Cl)c2)N(C)C(=O)[C@H](C(C)C)NC(=O)[C@H](C)NC(=O)CSC[C@@H](C(=O)NCCOCCOCCOCCOCCC(N)=O)NC(=O)[C@H](Cc2ccc(O)cc2)N(C)C(=O)[C@H](Cc2ccccc2)NC(=O)[C@H](CCCCN2CCOCC2)NC(=O)[C@H](CCC(=O)NCCOCCOCCOCCOC)NC(=O)[C@H]([C@@H](C)CC)NC1=O` [compound 119] ({CH2CO}-AV[NMePhe(3-Cl)]V[Trp(1-CH2COOH)]NYY(Carboxymethyl)IIE(NH(CH2CH2O)4Me)[Nle(6-morpholino)]F[NMeY]C[PEG4]-NH2; thioether N-15) was below 1 nM; that for `CC[C@H](C)[C@@H]1NC(=O)[C@H](Cc2ccc(OCC(=O)O)cc2)NC(=O)[C@H](Cc2ccc(O)cc2)NC(=O)[C@H](CC(N)=O)NC(=O)[C@H](Cc2cn(CC(=O)O)c3ccccc23)NC(=O)[C@H](C(C)C)NC(=O)[C@H](Cc2cccc(Cl)c2)N(C)C(=O)[C@H](C(C)C)NC(=O)[C@H](C)NC(=O)CSC[C@@H](C(=O)NCCOCCOCCOCCOCCC(N)=O)NC(=O)[C@H](Cc2ccc(O)cc2)N(C)C(=O)[C@H](Cc2ccncc2)NC(=O)[C@H](CCC(=O)NCCOCCOCCOCCOCCOCCOCCOCCOC)NC(=O)[C@H](CCCNC(=N)N)NC(=O)[C@H]([C@@H](C)CC)NC1=O` [compound 82] ({CH2CO}-AV[NMePhe(3-Cl)]V[Trp(1-CH2COOH)]NYY(Carboxymethyl)IIRE(NH(CH2CH2O)8Me)[4Pal][NMeY]C[PEG4]-NH2; thioether N-15) was 1 to 100 nM; that for `CC[C@H](C)[C@@H]1NC(=O)[C@H](Cc2ccc(OCC(=O)O)cc2)NC(=O)[C@H](Cc2ccc(O)cc2)NC(=O)[C@H](CC(N)=O)NC(=O)[C@H](Cc2c[nH]c3ncccc23)NC(=O)[C@H](C(C)C)NC(=O)[C@H](Cc2cccc(Cl)c2)N(C)C(=O)[C@H](C(C)C)NC(=O)[C@H](C)NC(=O)CSC[C@@H](C(=O)NCCOCCOCCOCCOCCC(N)=O)NC(=O)[C@H](Cc2ccc(O)cc2)N(C)C(=O)[C@H](Cc2ccccc2)NC(=O)[C@H](CCCNC(=N)N)NC(=O)[C@H](CCC(=O)NCCOCCOCCOCCOC)NC(=O)[C@H]([C@@H](C)CC)NC1=O` [compound 133] was 1 to 100 nM.
The same measure, in the same setting: the value for `CC[C@H](C)[C@@H]1NC(=O)[C@H](Cc2cccnc2)NC(=O)[C@H](Cc2ccc(O)cc2)NC(=O)[C@H](CC(N)=O)NC(=O)[C@H](Cc2c[nH]c3ccccc23)NC(=O)[C@H](C(C)C)NC(=O)[C@H](Cc2cccc(Cl)c2)N(C)C(=O)[C@H](C(C)C)NC(=O)[C@H](C)NC(=O)CSC[C@@H](C(=O)NCCOCCOCCOCCOCCC(N)=O)NC(=O)[C@H](Cc2ccc(O)cc2)N(C)C(=O)[C@H](Cc2ccncc2)NC(=O)[C@H](CCC(N)=O)NC(=O)[C@H](CCC(N)=O)NC(=O)[C@H]([C@@H](C)CC)NC1=O` [compound 67] ({CH2CO}-AV[NMePhe(3-Cl)]VWNY[3Pal]IIQQ[4Pal][NMeY]C[PEG4]-NH2; thioether N-15) was 1 to 100 nM; that for `CC[C@H](C)[C@@H]1NC(=O)[C@H](Cc2ccc(OC)cc2)NC(=O)[C@H](Cc2ccc(O)cc2)NC(=O)[C@H](CC(N)=O)NC(=O)[C@H](Cc2c[nH]c3ccccc23)NC(=O)[C@H](C(C)C)NC(=O)[C@H](Cc2cccc(Cl)c2)N(C)C(=O)[C@H](C(C)C)NC(=O)[C@H](C)NC(=O)CSC[C@@H](C(=O)NCCOCCOCCOCCOCCC(N)=O)NC(=O)[C@H](Cc2ccc(O)cc2)N(C)C(=O)[C@H](Cc2cccc(C(=O)O)c2)NC(=O)[C@H](CCC(=O)NCCOCCOCCOCCOCCOCCOCCOCCOC)NC(=O)[C@H](CCCNC(=N)N)NC(=O)[C@H]([C@@H](C)CC)NC1=O` [compound 90] ({CH2CO}-AV[NMePhe(3-Cl)]VWNYY(Me)IIRE(NH(CH2CH2O)8Me)[Phe(3-COOH)][NMeY]C[PEG4]-NH2; thioether N-15) was 1 to 100 nM.
